The target in one test is T1, FLT3 (Homo sapiens, UniProt P36888).
T1 sequence (P36888 27-993): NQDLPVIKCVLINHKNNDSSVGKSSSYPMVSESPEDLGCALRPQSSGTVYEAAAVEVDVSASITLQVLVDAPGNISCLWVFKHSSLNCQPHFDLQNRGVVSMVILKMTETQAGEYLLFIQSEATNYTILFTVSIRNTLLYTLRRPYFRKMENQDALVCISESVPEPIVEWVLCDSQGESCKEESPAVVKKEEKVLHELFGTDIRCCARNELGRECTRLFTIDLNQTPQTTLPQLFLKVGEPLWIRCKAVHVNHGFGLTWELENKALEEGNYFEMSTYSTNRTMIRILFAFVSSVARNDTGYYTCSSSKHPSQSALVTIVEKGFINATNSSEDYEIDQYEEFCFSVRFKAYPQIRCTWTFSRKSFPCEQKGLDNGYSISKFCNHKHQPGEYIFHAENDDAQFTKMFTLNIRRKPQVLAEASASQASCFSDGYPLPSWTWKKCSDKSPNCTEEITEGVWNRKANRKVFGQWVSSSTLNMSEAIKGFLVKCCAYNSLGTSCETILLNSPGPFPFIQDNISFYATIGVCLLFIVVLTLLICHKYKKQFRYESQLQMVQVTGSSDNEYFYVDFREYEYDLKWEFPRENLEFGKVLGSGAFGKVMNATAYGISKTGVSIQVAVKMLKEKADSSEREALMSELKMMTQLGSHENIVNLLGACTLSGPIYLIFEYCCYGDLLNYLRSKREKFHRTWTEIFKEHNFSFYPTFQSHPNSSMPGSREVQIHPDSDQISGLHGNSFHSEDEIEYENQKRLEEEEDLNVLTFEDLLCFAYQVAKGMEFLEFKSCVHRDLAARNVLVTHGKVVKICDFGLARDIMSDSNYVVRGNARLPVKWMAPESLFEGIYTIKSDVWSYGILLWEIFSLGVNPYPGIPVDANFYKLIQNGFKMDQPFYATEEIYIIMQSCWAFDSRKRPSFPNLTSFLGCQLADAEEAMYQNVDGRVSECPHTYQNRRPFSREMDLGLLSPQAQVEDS
The test can be described thus: TR-FRET kinase activity assay, FLT3. The conditions noted are these: ATP at Km, 60 minutes. The class given is biochemical. Put shortly:
(§1)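 TR-FRET signal from Eu-labeled phospho-site antibody bound to tyrosine-phosphorylated fluorescent peptide; inhibition lowers signal, giving IC50. Reactions: 50 mM HEPES pH 7.5, 10 mM MgCl2, 1 mM EGTA, 0.01% Brij 35, 1 mM DTT, ATP at Km per enzyme, 60 min, RT.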
For orientation: Time-resolved FRET reads energy transfer from a long-lived donor to a nearby acceptor.

The next test addresses T2, MERTK (Homo sapiens, UniProt Q12866).
T2 sequence (Q12866 21-999): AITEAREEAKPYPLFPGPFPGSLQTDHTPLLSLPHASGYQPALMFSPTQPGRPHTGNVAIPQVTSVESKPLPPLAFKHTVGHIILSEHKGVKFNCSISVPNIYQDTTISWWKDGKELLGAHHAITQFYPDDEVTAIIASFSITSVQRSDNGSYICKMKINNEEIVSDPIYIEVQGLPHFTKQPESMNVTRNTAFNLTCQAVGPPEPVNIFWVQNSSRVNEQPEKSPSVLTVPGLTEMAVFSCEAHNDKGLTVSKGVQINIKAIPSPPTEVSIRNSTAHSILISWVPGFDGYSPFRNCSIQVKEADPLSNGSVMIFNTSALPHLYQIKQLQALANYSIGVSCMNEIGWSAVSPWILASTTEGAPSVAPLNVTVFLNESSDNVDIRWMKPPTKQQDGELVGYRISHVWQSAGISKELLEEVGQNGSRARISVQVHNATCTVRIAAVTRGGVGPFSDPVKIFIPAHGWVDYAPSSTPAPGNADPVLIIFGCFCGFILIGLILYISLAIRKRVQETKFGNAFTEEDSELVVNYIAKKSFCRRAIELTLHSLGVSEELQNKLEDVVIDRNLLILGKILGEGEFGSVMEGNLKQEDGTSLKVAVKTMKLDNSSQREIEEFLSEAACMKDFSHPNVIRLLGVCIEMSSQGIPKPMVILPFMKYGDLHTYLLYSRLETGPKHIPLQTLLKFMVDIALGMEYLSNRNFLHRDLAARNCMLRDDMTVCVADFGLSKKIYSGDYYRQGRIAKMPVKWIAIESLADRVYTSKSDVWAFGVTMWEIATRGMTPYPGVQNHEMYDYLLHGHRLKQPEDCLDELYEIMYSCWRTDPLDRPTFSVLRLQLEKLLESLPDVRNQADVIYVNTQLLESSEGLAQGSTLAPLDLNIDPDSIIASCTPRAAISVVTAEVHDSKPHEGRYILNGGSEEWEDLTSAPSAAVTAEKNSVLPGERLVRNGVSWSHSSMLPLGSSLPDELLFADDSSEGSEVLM
The test can be described thus: TR-FRET kinase activity assay, MERTK. The class given is biochemical. As to conditions: for IC50: TR-FRET activity assay, ATP at Km, 60 minutes, read-out: Mer IC50; for Mer/Flt3 ratio (FLT3 IC50/Mer IC50): ratio calculated as FLT3 IC50/Mer IC50. The essentials:
as §1

Each structure is given as a SMILES string.

Usually IC50 stands for the concentration that gives 50% inhibition. The compound `C[C@@H](CC(F)(F)F)Nc1ncc2c(OC3CCN(C)CC3)ncc([C@H]3CC[C@H](O)CC3)c2n1` [Compound 352] had an IC50 against FLT3 of 1 to 10 µM. Further, at MERTK, the IC50 is at most 0.1 µM and the “Mer/Flt3 ratio (FLT3 IC50/Mer IC50)” value was “+++ (a ratio of >100)”.
On to `O=C(O)[C@H]1CC[C@@H](Nc2ncc3c(OC4CCOCC4)ncc([C@H]4CC[C@H](O)CC4)c3n2)CC1` [Compound 353], for which, at FLT3, the IC50 was 1 to 10 µM. On MERTK, the IC50 lay within 1 to 10 µM; the “Mer/Flt3 ratio (FLT3 IC50/Mer IC50)” value was “+ (a ratio of >2.0 and <10)”.
At FLT3, `COC[C@H](C)Nc1ncc2c(O[C@@H]3CCOC3)ncc([C@H]3CC[C@H](O)CC3)c2n1` [Compound 354] registered an IC50 of 1 to 10 µM. Further, on MERTK, the IC50 is at most 0.1 µM and the “Mer/Flt3 ratio (FLT3 IC50/Mer IC50)” value is “+++ (a ratio of >100)”.

The record behind these values is patent publication US20200291018A1, “TAM KINASE INHIBITORS” (SYROS PHARMACEUTICALS, INC., priority 2017, published 2020).
